{
  "source": "patent US20180338937A1",
  "about": "“PHARMACEUTICAL PREPARATIONS” (Analyticon Discovery GmbH, priority 2015, published 2018)",
  "key": {"[1]": {"details": "Sepulveda et al., Pharmacol. Res. 52(5), 429-437 (2005); cited from earlier work"}, "[2]": {"assay": "Sensory tasting of a solution of a Nurofen ® suspension, sip and spit", "format": "in vivo, human", "details": "Nurofen ® suspension dissolved in water, ibuprofen 5 mg/ml, 25 μM dehydroabietic acid, 0.5% ethanol, vs comparison sample", "procedure": "Taste Modulation of Ibuprofen in Suspension (Nurofen®) The sensory evaluation of the samples was performed by a team of five experienced assessors."}, "[3]": {"assay": "Sensory tasting of a solution of an ibuprofen suspension (Asda), sip and spit", "format": "in vivo, human", "details": "Ibuprofen suspension (orange taste, no sweeteners) in water, ibuprofen 5 mg/ml, 25 μM dehydroabietic acid, 0.5% ethanol, vs comparison sample", "procedure": "Taste Modulation of Ibuprofen in Suspension (Asda) The sensory evaluation of the samples was performed by a team of five experienced assessors. Details may be taken from the following Table 5: [table]"}, "cyclooxygenase": {"system": "cyclooxygenase", "details": "U.S. Pat. No. 6,365,634 B1 (RUSSEL); cited from earlier work"}, "[4]": {"assay": "Sensory tasting of a maltitol/paracetamol solution, sip and spit", "format": "in vivo, human", "details": "Paracetamol/maltitol syrup in water, paracetamol 12.5 mg/ml, 25 μM dehydroabietic acid, 0.5% ethanol, vs comparison sample", "procedure": "Taste Modulation of Paracetamol in a Maltitol Formulation The sensory evaluation of the samples was performed by a team of five experienced assessors. Details may be taken from the following Table 2: [table]"}, "[5]": {"assay": "Sensory tasting of a Nurofen ® tablet solution, sip and spit", "format": "in vivo, human", "details": "Nurofen ® tablets dissolved in water, ibuprofen 5 mg/ml, 25 μM dehydroabietic acid, 0.5% ethanol, vs comparison sample", "procedure": "Taste Modulation of Ibuprofen in the Form of Tablets with Lysine (Nurofen®) The sensory evaluation of the samples was performed by a team of five experienced assessors."}, "[6]": {"assay": "Sensory tasting of a Calpol ® solution, sip and spit, five assessors", "format": "in vivo, human", "details": "Calpol ® suspension in water, paracetamol 12.5 mg/ml, 25 μM dehydroabietic acid, 0.5% ethanol", "procedure": "Taste Modulation of Paracetamol in a Commercially Available Formulation The sensory evaluation of the samples was performed by a team of five experienced assessors. Details may be taken from the following Table 1: [table]"}, "[7]": {"assay": "Sensory tasting of a maltitol/ibuprofen solution, sip and spit", "format": "in vivo, human", "details": "Ibuprofen/maltitol syrup in water, 25 μM dehydroabietic acid, 0.5% ethanol, vs comparison sample"}, "[8]": {"details": "cited from earlier work"}},
  "data": [
    {"smiles": "CC(C)c1ccc2c(c1)CC[C@H]1[C@](C)(C(=O)O)CCC[C@]21C", "note": "[dehydroabietic acid]", "values": [
      {"measurement": "gastroprotective properties", "setting": "[1]", "value": "has gastroprotective properties"},
      {"measurement": "Evaluation of the sample: typical natural taste of ibuprofen", "setting": "[2]", "value": "Masking of the typical natural taste"},
      {"measurement": "Evaluation of the sample: bitterness", "setting": "[3]", "value": "less bitter"},
      {"measurement": "Evaluation of the sample: orange aroma", "setting": "[3]", "value": "intensification of the orange aroma"},
      {"measurement": "Evaluation of the sample: overall taste", "setting": "[3]", "value": "more pleasant taste"},
      {"measurement": "Evaluation of the sample: sweetness", "setting": "[3]", "value": "more sweet"},
      {"measurement": "inhibition of the cyclooxygenase", "setting": "cyclooxygenase", "value": "inhibit the cyclooxygenase"},
      {"measurement": "Evaluation of the sample: aftertaste", "setting": "[4]", "value": "pleasant aftertaste"},
      {"measurement": "Evaluation of the sample: bitterness", "setting": "[4]", "value": "Bitterness reduced and delayed"},
      {"measurement": "Evaluation of the sample: taste at the beginning", "setting": "[4]", "value": "better taste at the beginning and more"},
      {"measurement": "Evaluation of the sample: unpleasant/metallic taste", "setting": "[4]", "value": "no long-lasting unpleasant/metallic taste"},
      {"measurement": "Evaluation of the sample: bitterness", "setting": "[5]", "value": "reduced bitterness"},
      {"measurement": "Evaluation of the sample: delayed burning sensation in the throat", "setting": "[5]", "value": "no change to the delayed burning"},
      {"measurement": "Evaluation of the sample: metallic taste", "setting": "[6]; vs comparison sample", "value": "metallic taste reduced"},
      {"measurement": "Evaluation of the sample: bitterness", "setting": "[6]; vs comparison sample without dehydroabietic acid", "value": "very significantly less bitter"},
      {"measurement": "Evaluation of the sample: aftertaste", "setting": "[7]; 5 mg/ml", "value": "less unpleasant aftertaste"},
      {"measurement": "Evaluation of the sample: burning sensation on the tongue/in the throat", "setting": "[7]; 5 mg/ml", "value": "alleviation of the burning sensation"},
      {"measurement": "Evaluation of the sample: mouth dryness", "setting": "[7]; 5 mg/ml", "value": "reduced mouth dryness"},
      {"measurement": "Evaluation of the sample: sweetness", "setting": "[7]; 5 mg/ml", "value": "slightly sweet"},
      {"measurement": "Evaluation of the sample: bitterness", "setting": "[7]; ibuprofen 5 mg/ml", "value": "less bitter"}
    ]},
    {"smiles": "C=C1C[C@@]23CC[C@H]4[C@@](C)(CCC[C@@]4(C)C(=O)O[C@@H]4O[C@H](CO)[C@@H](O)[C@H](O)[C@H]4O)[C@@H]2CC[C@]1(O[C@@H]1O[C@H](CO)[C@@H](O)[C@H](O)[C@H]1O[C@@H]1O[C@H](CO)[C@@H](O)[C@H](O)[C@H]1O)C3", "note": "[stevioside]", "values": [
      {"measurement": "daily uptake considered harmless", "setting": "[8]", "value": "up to 4 mg stevioside per kilogramme of bodyweight"}
    ]}
  ]
}
